Where a name gives a salt, the structure may show the parent alone.
Key:
Assay type in all cases: in vivo, human
[1] = tested on: patients with high-risk MF; test: Phase 1/2a clinical study: hemoglobin, transfusion status and F-cells
Description: (§1) A multi-center, open-label study evaluating the safety, tolerability, steady-state pharmacokinetics and pharmacodynamics of Compound 1 administered orally once daily in patients with high-risk MF, including primary myelofibrosis (PMF), post-polycythemia vera myelofibrosis (PPV-MF), and post-essential thrombocythemia myelofibrosis (PET-MF) (collectively referred to as ‘MF’) was initiated as a Phase 1/2A study, and was expanded to a Phase 2b study.
Improvements in hemoglobin (Hb) levels and percent fetal hemoglobin containing erythrocytes (F-cells) were also observed. Of 18 patients enrolled in Phase 1b/2a, 3 presented at day 0 with Hb>10 g/dL and 15 had grade 2 or 3 anemia, with Hb<10 g/dL. Of the 3 with Hb>10 g/dL, 1 improved (defined as an increase of Hb>1 g/dL), 2 worsened (a decrease of Hb>1 g/dL) at day 84 in the course of treatment with Compound 1. Of the 15 patients with Hb<10 g/dL, 9 were transfusion-dependent, and 6 transfusion-independent. Of the 9 transfusion-dependent patients, at day 84, 1 became transfusion-independent and had improved Hb of >1 g/dL, […], and one had increased transfusion frequency.

bone marrow fibrosis = test: Phase 1/2a clinical study: bone marrow fibrosis grade; settings: Day 0 to Day 84 or EoT; 13 patients with biopsies
Description: as §1
All but one patient had received one or more prior treatments including ruxolitinib. 48% had PMF, 33% PET-MF, 19% PPV-MF. The median patient age was 65 years (48-89) with 58% males. 48% were classified as high risk (IPSS), the remainder, intermediate risk-2. […] A substantial fraction of the patients had ≥3 mutations. Patients were treated daily for 12 weeks, in accordance with above starting dose and titration rules, followed by a washout period of up to 28 days. Starting platelet counts ranged from about 141 to about 1309 k/μL. Bone marrow biopsies and imaging studies of the abdomen were conducted prior to treatment and during the washout period after 12 weeks of dosing. Grading of myelofibrosis was performed centrally using the 2016 revised World Health Organization classification of myeloid neoplasia (Arber et al., 2016); image reading was also performed centrally. […]

[2] = tested on: patients with myelofibrosis; test: Phase 2b clinical study in myelofibrosis: spleen volume at week 12
Description: (§2) A multi-center, open label, dose-range finding study to assess the safety, optimally effective dosing rules, steady-state pharmacokinetics and pharmacodynamics of Compound 1 orally once daily in patients with myelofibrosis was conducted in a Phase 1/2a study. • Primary objectives were to evaluate, in MF patients the effect of Compound 1 on: Safety and tolerability • Pharmacokinetics (Phase 1/2a only) • Reduction in spleen volume
(§3) This study initiated as a Phase 1/2a study assessing the safety of the starting dose, an 85 day duration of treatment, and the pharmacokinetic and pharmacodynamic effects of Compound 1, with transition to a Phase 2b study incorporating changes supported by the earlier pharmacokinetic and pharmacodynamic studies and safety assessments. This study consisted of two treatment periods: the Initial Treatment Period (ITP), followed by the Additional Treatment Period (ATP). Patients commenced enrolment in the Phase 2b portion of the study, in which the ITP has been extended such that patients were treated daily for 169 days. The ATP, also extended, offered treatment to qualifying patients for an additional 169 days.
Initial Treatment Period. During the ITP, patients initially returned for study assessments twice weekly for the first week (ITP Days 0, 3 and 7); post-dosing of 3 patients at the new Ds, the DSMC convened to assess the necessity of the Day 3 visit. Patients returned weekly for the next 7 weeks (ITP Days 14, 21, 28, 35, 42, 49 and 56), at least bi-weekly for 8 weeks (ITP Days 70, 84, 98 and 112) and then monthly for 8 weeks (ITP Days 140 and 168). It was anticipated that by Week 8 (Day 56) patients will have achieved a stable dose, with weekly titrations no longer necessary. For the exceptional patient whose dose had not stabilized, weekly visits continued at the PI's discretion (note: bi-weekly visits may also continue post Day 112). On Days 84 and 168, patients underwent abdominal magnetic resonance imaging (MRI), or computerized tomography (CT) if the patient was not a candidate for MRI. On Day 168, bone marrow sampling was also required. […]

[3] = tested on: patients with myelofibrosis; test: All patients (Phase 1/2a and 2b): total symptom score at week 12; settings: all patients at Week 12, n=32
Description: as §2, §3
The Myeloproliferative Neoplasm Symptom Assessment Form Total Symptom Score (MPN-SAF TSS) will be completed at Baseline and on each visit day (with the exception of Day 3) from Day 0 through the End of Study (EoS) Visit.

[4] = day 84, of the 3 patients with Hb>10 g/dL at day 0
[5] = day 84, of the 9 transfusion-dependent patients
[6] = of the 6 transfusion-independent patients with Hb<10 g/dL
[7] = Phase 2b patients at Week 12, n=14

SMILES: CN1CCN(C(=O)[C@H](CCCN[C@@H]2C[C@H]2c2ccc(F)cc2)NC(=O)c2ccc(-n3ccnn3)cc2)CC1 [Compound 1, N-[(2S)-5-{[(1R, 2S)-2-(4-fluorophenyl)cyclopropyl]amino}-1-(4-methylpiperazin-1-yl)-1-oxopentan-2-yl]-4-(1H-1,2,3-triazol-1-yl)benzamide, bis-tosylate salt]
- number of patients with improved Hb (increase of Hb>1 g/dL) [1, 4]: 1
- number of patients with worsened Hb (decrease of Hb>1 g/dL) [1, 4]: 2
- number of patients who maintained stable transfusion frequency [1, 5]: 8
- number of patients with increased transfusion frequency [1, 5]: one
- number of patients who became transfusion-independent with improved Hb of >1 g/dL ([1]; day 84, of the 9 transfusion-dependent patients with Hb<10 g/dL): 1
- number of patients improved (Hb) [1, 6]: 1
- number of patients remained stable (Hb) [1, 6]: 3
- number of patients worsened (became transfusion dependent or Hb drop by >1 g/dL) [1, 6]: 2
- patients with a stable fibrosis score (bone marrow fibrosis): 62%
- patients with improvement of bone marrow fibrosis of ≥1 grade (bone marrow fibrosis): 15%
- patients with a reduction of spleen volume of ≥20% [2, 7]: 29%
- patients with a reduction of spleen volume of ≥35% [2, 7]: 14%
- median change of spleen volume to Wk 12 ([2]; Phase 2b patients, n=14): −15%
- patients with a reduction of symptom score of ≥50% [3]: 25%

— patent publication US20230000835A1, “LYSINE-SPECIFIC HISTONE DEMETHYLASE INHIBITORS FOR THE TREATMENT OF MYELOPROLIFERATIVE NEOPLASMS” (Imago Biosciences, Inc., priority 2019, published 2023)
